Measured values: paper PMC4010122 (Journal of medicinal chemistry, 2008)

Key:
Type in all cases: biochemical
BRAF^WT = BRAF^WT (Homo sapiens, UniProt P15056); assay: ELISA-based MEK phosphorylation assay
PAK1 = PAK1 (Homo sapiens, UniProt Q13153); assay: Kinase profiling, PAK1; conditions: inhibitor concentration of 100 μM
GSK3β = GSK3β (Homo sapiens, UniProt P49841); assay: Kinase profiling, GSK3β; conditions: inhibitor concentration of 100 μM
MST1 = target: T1, MST1 (Homo sapiens, UniProt Q13043); assay: Kinase profiling, MST1; conditions: inhibitor concentration of 100 μM
T1 sequence (Q13043 1-487): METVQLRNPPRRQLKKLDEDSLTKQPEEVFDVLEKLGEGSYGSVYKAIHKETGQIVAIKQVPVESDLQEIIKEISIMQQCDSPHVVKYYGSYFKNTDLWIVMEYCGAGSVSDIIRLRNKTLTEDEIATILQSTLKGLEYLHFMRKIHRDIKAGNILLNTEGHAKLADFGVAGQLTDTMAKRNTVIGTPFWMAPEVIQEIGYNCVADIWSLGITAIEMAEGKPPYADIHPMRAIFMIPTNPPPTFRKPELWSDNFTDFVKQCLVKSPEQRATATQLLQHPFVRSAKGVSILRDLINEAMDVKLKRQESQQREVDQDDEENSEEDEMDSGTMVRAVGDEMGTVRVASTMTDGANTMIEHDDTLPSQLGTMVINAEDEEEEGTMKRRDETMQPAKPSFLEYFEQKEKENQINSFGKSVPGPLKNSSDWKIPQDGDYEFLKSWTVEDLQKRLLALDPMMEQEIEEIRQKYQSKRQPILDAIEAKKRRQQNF

Pim1 = Pim1 (Homo sapiens, UniProt P11309); assay: Kinase profiling, Pim1; conditions: inhibitor concentration of 100 μM
Chain of Pim1 (P11309 whole entry, species assumed): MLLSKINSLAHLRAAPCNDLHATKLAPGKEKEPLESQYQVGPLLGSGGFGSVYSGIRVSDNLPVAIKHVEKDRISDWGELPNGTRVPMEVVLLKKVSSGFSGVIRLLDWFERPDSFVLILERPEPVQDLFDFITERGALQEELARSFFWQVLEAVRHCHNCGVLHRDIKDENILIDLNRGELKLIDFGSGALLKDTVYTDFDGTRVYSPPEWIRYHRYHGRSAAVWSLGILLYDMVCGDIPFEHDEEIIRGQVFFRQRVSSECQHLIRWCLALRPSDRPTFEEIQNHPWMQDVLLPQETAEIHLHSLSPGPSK

PAK4 = PAK4 (Homo sapiens, UniProt O96013); assay: Kinase profiling, PAK4; conditions: inhibitor concentration of 100 μM
Chain of PAK4 (O96013 whole entry, species assumed): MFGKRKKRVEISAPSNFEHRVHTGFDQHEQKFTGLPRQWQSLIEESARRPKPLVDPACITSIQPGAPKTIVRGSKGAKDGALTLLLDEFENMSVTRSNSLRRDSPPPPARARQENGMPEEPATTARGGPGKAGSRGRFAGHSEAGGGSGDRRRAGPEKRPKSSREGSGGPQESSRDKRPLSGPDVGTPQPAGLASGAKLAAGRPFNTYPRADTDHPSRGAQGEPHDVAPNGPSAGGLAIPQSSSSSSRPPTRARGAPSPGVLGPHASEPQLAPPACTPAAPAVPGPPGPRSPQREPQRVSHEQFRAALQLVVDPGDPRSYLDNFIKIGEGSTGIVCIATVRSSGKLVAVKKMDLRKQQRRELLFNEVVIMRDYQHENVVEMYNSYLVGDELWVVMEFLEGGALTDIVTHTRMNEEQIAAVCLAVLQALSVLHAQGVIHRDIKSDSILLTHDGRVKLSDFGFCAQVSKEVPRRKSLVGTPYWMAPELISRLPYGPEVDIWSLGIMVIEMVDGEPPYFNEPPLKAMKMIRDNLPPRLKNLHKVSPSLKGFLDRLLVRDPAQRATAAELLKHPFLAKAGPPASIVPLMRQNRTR

PI3Kγ = PI3Kγ (Homo sapiens, UniProt P48736); assay: Kinase profiling, PI3Kγ lipid kinase; conditions: BRAF versus PI3Kγ
Chain of PI3Kγ (P48736 whole entry, species assumed): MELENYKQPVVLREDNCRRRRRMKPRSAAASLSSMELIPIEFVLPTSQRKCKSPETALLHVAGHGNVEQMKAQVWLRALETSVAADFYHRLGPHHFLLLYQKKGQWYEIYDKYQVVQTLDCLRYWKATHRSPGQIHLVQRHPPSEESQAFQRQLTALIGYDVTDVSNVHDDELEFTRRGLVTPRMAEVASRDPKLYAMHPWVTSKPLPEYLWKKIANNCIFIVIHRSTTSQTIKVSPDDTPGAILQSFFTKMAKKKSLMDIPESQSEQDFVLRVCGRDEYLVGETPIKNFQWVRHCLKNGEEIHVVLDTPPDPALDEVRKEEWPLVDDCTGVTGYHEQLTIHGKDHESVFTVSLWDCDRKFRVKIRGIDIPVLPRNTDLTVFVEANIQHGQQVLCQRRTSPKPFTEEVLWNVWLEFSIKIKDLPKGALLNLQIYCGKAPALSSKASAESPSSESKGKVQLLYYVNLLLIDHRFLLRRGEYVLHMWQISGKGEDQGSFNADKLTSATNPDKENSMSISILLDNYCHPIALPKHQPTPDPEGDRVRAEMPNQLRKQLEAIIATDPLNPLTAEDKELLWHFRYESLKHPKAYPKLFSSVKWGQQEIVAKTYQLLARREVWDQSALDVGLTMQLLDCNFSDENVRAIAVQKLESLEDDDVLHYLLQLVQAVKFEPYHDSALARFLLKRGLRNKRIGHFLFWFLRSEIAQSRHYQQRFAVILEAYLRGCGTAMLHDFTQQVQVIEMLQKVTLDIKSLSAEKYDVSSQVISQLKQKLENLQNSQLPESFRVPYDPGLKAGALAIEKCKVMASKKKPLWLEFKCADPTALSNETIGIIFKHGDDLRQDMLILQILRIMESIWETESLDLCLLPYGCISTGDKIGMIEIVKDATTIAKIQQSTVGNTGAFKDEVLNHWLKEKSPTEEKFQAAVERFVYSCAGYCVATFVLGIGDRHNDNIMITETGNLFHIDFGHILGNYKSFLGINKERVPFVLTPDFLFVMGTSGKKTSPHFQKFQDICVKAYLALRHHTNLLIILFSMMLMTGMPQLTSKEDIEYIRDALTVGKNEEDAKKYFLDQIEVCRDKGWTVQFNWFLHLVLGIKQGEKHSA

Chain of BRAF^WT (P15056 433-726): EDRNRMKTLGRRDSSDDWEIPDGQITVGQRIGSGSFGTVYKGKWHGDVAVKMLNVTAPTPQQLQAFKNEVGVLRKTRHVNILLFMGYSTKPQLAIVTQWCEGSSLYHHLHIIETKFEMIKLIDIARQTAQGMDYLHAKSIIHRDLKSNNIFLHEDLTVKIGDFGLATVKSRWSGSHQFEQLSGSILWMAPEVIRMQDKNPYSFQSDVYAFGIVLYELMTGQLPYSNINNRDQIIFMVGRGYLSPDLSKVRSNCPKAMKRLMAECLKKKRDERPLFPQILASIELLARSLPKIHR
Chain of PAK1 (Q13153 whole entry): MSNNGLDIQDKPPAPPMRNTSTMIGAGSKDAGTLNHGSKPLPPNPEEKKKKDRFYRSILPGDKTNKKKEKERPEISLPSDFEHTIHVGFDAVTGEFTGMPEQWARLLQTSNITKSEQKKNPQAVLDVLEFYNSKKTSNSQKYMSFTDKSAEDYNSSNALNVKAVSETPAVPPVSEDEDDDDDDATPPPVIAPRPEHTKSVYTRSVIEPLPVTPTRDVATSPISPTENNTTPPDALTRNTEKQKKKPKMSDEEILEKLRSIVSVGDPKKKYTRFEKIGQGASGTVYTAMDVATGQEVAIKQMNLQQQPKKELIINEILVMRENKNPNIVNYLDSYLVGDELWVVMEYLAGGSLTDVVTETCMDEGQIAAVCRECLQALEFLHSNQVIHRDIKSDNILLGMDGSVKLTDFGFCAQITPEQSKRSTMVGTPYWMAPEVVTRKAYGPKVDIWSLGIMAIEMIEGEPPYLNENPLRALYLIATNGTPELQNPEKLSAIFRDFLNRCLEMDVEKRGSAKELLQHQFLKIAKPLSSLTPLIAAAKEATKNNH
Chain of GSK3β (P49841 whole entry, species assumed): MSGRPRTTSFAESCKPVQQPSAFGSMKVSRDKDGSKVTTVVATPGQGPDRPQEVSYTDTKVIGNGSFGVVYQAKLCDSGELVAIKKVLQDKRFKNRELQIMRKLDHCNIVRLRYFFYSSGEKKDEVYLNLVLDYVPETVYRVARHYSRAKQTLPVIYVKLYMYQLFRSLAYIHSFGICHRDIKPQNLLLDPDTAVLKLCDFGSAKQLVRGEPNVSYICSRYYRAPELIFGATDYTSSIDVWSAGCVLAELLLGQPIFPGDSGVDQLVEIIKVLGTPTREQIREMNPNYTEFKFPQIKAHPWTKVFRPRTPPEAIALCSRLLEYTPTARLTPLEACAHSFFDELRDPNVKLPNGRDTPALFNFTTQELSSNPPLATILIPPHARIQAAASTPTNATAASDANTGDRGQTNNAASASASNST

## Cn1c(=O)[nH]c(=O)c2c1nc(N/N=C\c1cccc([N+](=O)[O-])c1)n2Cc1ccccc1 [compound 31]
BRAF^WT
  reduction in BRAF inhibitor potency relative to compound 19: ≥ 20 fold

## Cn1c(=O)n(Cc2ccccc2)c(=O)c2c1nc(SCCO)n2Cc1ccccc1 [compound 24]
PAK1
  inhibition against PAK1: did not show significant inhibition
GSK3β
  inhibition against GSK3β: did not show significant inhibition
BRAF^WT; versus GSK3β, Pim1, MST1, PAK1, PAK4
  selectivity for BRAF over other representative protein kinases: more than 50 fold
MST1
  inhibition against MST1: did not show significant inhibition
Pim1
  inhibition against Pim1: did not show significant inhibition
PAK4
  inhibition against PAK4: did not show significant inhibition
PI3Kγ
  selectivity for BRAF over PI3K lipid kinases: > 12 fold

## Cn1c(=O)[nH]c(=O)c2c1nc(N/N=C\c1ccc([N+](=O)[O-])cc1)n2Cc1ccccc1 [compound 32]
BRAF^WT
  reduction in BRAF inhibitor potency relative to compound 19: ≥ 20 fold

## CC1Nc2nc(NC(=O)c3ccc[n+](C)c3)[nH]c(=O)c2N(C(=O)c2ccc[n+](C)c2)C1C (stereo not shown) [compound 1]
BRAF^WT; read-out: BRAF kinase activity remaining (of wild-type activity)
  remaining activity at 100 µM: ~80%
